Experimental findings from PMC12040169 (PLOS Biology, 2025) are described below.

One data set in a line: in vitro. Particulars: human, hela cells, % viability.
As to `O=S(=O)(c1ccc(-c2ccc(S(=O)(=O)N3CCCCC3)cc2)cc1)N1CCCCC1` [CBK261257], the viability – broadly, a read-out of living cells in per cent, often relative to untreated cells – at 28.5 h, 10 µM turned out to be 92.2%.
As to `O=C(Nc1ccccc1C(=O)O)c1cccc(S(=O)(=O)NCc2ccccc2)c1` [CBK261258], the viability at 28.5 h, 10 µM came to 98.1%.
Still for that read-out and setting: to `O=S(=O)(c1cccc(S(=O)(=O)N2CCOCC2)c1)c1ccc(Cl)c(S(=O)(=O)N2CCOCC2)c1` [CBK261260] belongs 104%.
Take `O=C(O)c1cccc(NC(=O)c2cccc(S(=O)(=O)Nc3ccc(Cl)cc3)c2)c1` [CBK261261]: the viability at 28.5 h, 10 µM came out at 92.6%.
Take `CC1=C(C)C(=NNC(N)=S)C(C)=C(C)C1=NNC(N)=S` [CBK261262]: the viability at 28.5 h, 10 µM stood at 91.9%.
Take `Cc1ccc(-n2nc(-c3ccc(NC(=O)c4ccccc4)cc3)cc2NC(=O)c2ccccc2)cc1` [CBK261265]: the viability at 28.5 h, 10 µM is 92.3%.
For `O=C(O)c1ccc(C(=O)O)c2c(-c3ccc(C(=O)O)c4c(C(=O)O)ccc(C(=O)O)c34)ccc(C(=O)O)c12` [CBK261267], the viability at 28.5 h, 10 µM was found to be 98.4%.
With `CCCCc1ccc(C(=O)CSc2nc(N)c(C#N)c(-c3ccc(O)cc3)c2C#N)cc1` [CBK261268], the viability at 28.5 h, 10 µM was determined as 93.4%.
`N#Cc1c(N)nc(SCC(=O)c2cc3ccccc3oc2=O)c(C#N)c1-c1ccc(O)cc1` [CBK261269]: the viability at 28.5 h, 10 µM came to 103%.
Still for that read-out and setting: the figure for `CC(C)(C)c1cc(CCC(c2cc(C(C)(C)C)c(O)c(C(C)(C)C)c2)c2cc(C(C)(C)C)c(O)c(C(C)(C)C)c2)cc(C(C)(C)C)c1O` [CBK261271] is 92.9%; for `CC(=O)Nc1ccc(-c2cc(-c3ccc(NC(C)=O)cc3)nc(-c3ccc([N+](=O)[O-])cc3)n2)cc1` [CBK261273] it is 91.5%.
`O=C(O)CCC(=O)c1c[nH]c2ccccc12` [CBK261275]: the viability at 28.5 h, 10 µM was determined as 110%.
Regarding `O=C(N/C(=C/c1ccccc1)C(=O)N1CCCCC1)c1ccccc1` [CBK261280], the viability at 28.5 h, 10 µM was determined as 94.7%.
In the case of `c1ccc(CN2CCN(Cc3ccccc3)C2c2ccc[nH]2)cc1` [CBK261283], the viability at 28.5 h, 10 µM is 82.9%.
Regarding `COC(=O)Nc1ccc2c(c1)N(C(=O)CCN1CCOCC1)c1ccccc1CC2` [CBK261284C], the viability at 28.5 h, 10 µM was 95.9%.
`CCOC(=O)Nc1ccc2c(c1)N(C(=O)CN1CCOCC1)c1ccccc1CC2` [CBK261286C]: the viability at 28.5 h, 10 µM came to 101%.
For the compound `CN(C)CC(=O)N1c2ccccc2CCc2ccc(NC(=O)c3ccccc3)cc21` [CBK261289C], the viability at 28.5 h, 10 µM turned out to be 94.2%.
As to `CCOC(=O)Nc1ccc2c(c1)N(C(=O)CN(C)C)c1ccccc1S2` [CBK261290C], the viability at 28.5 h, 10 µM was 106%.
For `O=C(Nc1ccccc1)NC(N1CCOCC1)C(Cl)(Cl)Cl` (stereo not drawn) [CBK261293], the viability at 28.5 h, 10 µM stood at 103%.
As to `O=C(CSc1nc2ccccc2[nH]1)c1ccccc1` [CBK261298], the viability at 28.5 h, 10 µM was found to be 92.9%.
For `NS(=O)(=O)c1ccc(NC(=O)CCCN2C(=O)/C(=C/c3ccc(Cl)cc3)SC2=S)cc1` [CBK261302], the viability at 28.5 h, 10 µM worked out at 87.9%.
Turning to `CC1CCN(CN2C(=O)C(=O)c3ccccc32)CC1` [CBK261304], the viability at 28.5 h, 10 µM worked out at 91.7%.
Consider `N/N=C(\CCC(=O)O)c1ccccc1` [CBK261306], for which the viability at 28.5 h, 10 µM amounted to 98.3%.
Regarding `O=C(O)CC1Sc2ccccc2NC1=O` (stereo not drawn) [CBK261308], the viability at 28.5 h, 10 µM came out at 101%.
With `CCOC(=O)c1c(C)n(-c2ccc(C)cc2)c2ccc(Oc3ncccc3C#N)cc12` [CBK261310], the viability at 28.5 h, 10 µM is 109%.
Turning to `CSCCC(NC=C1C(=O)CC(C)(C)CC1=O)C(=O)O` (stereo not drawn) [CBK261311], the viability at 28.5 h, 10 µM turned out to be 92.9%.
With `CN(C)Cc1c(O)ccc2occ(C(O)c3ccccc3)c12` (stereo not drawn) [CBK261313], the viability at 28.5 h, 10 µM is 104%.
Same read-out and setting: to `CC(=O)SCCC(=O)N1C(C)CCCC1C(=O)O` (stereo not drawn) [CBK261315] belongs 93.1%; to `O=C(Nc1cccc2cccnc12)c1ccc(Cl)c(Cl)c1` [CBK261318], 91.5%; to `COc1cccc(NC(=O)CCCC(=O)O)c1` [CBK261324], 98.1%.
For the compound `O=C(O)CCC(=O)Nc1ccccc1C(=O)O` [CBK261325], the viability at 28.5 h, 10 µM came to 91.1%.
As to `O=C(O)CN(CC(=O)O)c1ccccc1` [CBK261326], the viability at 28.5 h, 10 µM was 90.7%.
Same read-out and setting: the figure for `Cc1ccc(NC(=O)c2cc(C(=O)Nc3ccc(C)c(C)c3)cc(N3C(=O)c4ccccc4C3=O)c2)cc1C` [CBK261328] is 93.8%; for `CC(C)(C)C(=O)Nc1ccc(C(=O)Nc2cccc(C(=O)O)c2)cc1` [CBK261329] it is 94.8%; for `O=C(O)CCC(=O)Nc1ccc(-c2nc3ccccc3o2)cc1` [CBK261330] it is 98%.
Regarding `O=C(O)c1ccc2c(c1)C(=O)N(c1ccc3c(c1)Cc1cc(N4C(=O)c5ccc(C(=O)O)cc5C4=O)ccc1-3)C2=O` [CBK261333], the viability at 28.5 h, 10 µM stood at 90.5%.
As to `O=C(Nc1ccc(O)cc1)c1ccc2c(c1)C(=O)N(c1cccc(N3C(=O)c4ccc(C(=O)Nc5ccc(O)cc5)cc4C3=O)n1)C2=O` [CBK261334], the viability at 28.5 h, 10 µM was 102%.
Turning to `O=C1c2ccc(S(=O)(=O)c3ccc4c(c3)C(=O)N(c3nccs3)C4=O)cc2C(=O)N1c1nccs1` [CBK261335], the viability at 28.5 h, 10 µM came out at 105%.
In the case of `O=C(O)c1cc(C(=O)O)cc(N2C(=O)c3ccc(S(=O)(=O)c4ccc5c(c4)C(=O)N(c4cc(C(=O)O)cc(C(=O)O)c4)C5=O)cc3C2=O)c1` [CBK261336], the viability at 28.5 h, 10 µM was 100%.
As for `CC(=O)NCC(CN1CCOCC1)([N+](=O)[O-])[N+](=O)[O-]` [CBK261337], the viability at 28.5 h, 10 µM is 88.2%.
Regarding `O=C(NCC(CN1CCOCC1)([N+](=O)[O-])[N+](=O)[O-])c1ccccc1` [CBK261339], the viability at 28.5 h, 10 µM was 100%.
Consider `O=C1C2(Cc3ccccc3)CN3CN(C2)CC1(Cc1ccccc1)C3` [CBK261341], for which the viability at 28.5 h, 10 µM was determined as 89.9%.
Same read-out and setting: to `CCOC(=O)NC(Nn1cnnc1)(C(F)(F)F)C(F)(F)F` [CBK261344] belongs 117%; to `COC(=O)CCC(=O)Nc1cccc([N+](=O)[O-])c1` [CBK261345], 95.4%.
Still for that read-out and setting: the figure for `COc1cc(/C=N/NC(=O)c2ccc([N+](=O)[O-])cc2)ccc1OC(C)=O` [CBK261348] is 112%.
On the same count and under the same terms, to `COC(=O)CCC(=O)Nc1ccc(S(N)(=O)=O)cc1` [CBK261351] belongs 88.1%.
For the compound `O=C(O)CCC(=O)NNC(=O)c1ccc(O)cc1` [CBK261353], the viability at 28.5 h, 10 µM was 105%.
In the case of `CCCOc1ccc(C(N)CC(=O)O)cc1` (stereo not drawn) [CBK261360], the viability at 28.5 h, 10 µM was 93.5%.
Regarding `CCOc1ccc(C(C)(N)C(=O)O)cc1` (stereo not drawn) [CBK261362], the viability at 28.5 h, 10 µM was found to be 121%.
As for `CCOc1ccc(C(CC(=O)O)C(=O)O)cc1` (stereo not drawn) [CBK261363], the viability at 28.5 h, 10 µM stood at 96.7%.
For `O=S(=O)(c1ccc(-c2ccc(S(=O)(=O)N3CCOCC3)cc2)cc1)N1CCOCC1` [CBK261366], the viability at 28.5 h, 10 µM was found to be 103%.
Turning to `O=S(=O)(c1ccc(Cl)c(S(=O)(=O)N2CCOCC2)c1)c1ccc(Cl)c(S(=O)(=O)N2CCOCC2)c1` [CBK261369], the viability at 28.5 h, 10 µM was found to be 112%.
For the compound `C/C(CCS(=O)(=O)c1ccc(Br)cc1)=N\NC(N)=S` [CBK261370], the viability at 28.5 h, 10 µM was 102%.

The same data set, now with this note: human, hela cells, % viability, bulk resorufin, single well.
Consider `CCN(CC)CCNC(=O)CN1CCCC1=O` [CBK261312], for which the viability at 28.5 h, 10 µM came out at 84.6%.
